Measurements as given in US11358931B2, “Selective androgen receptor modulators (SARMs) and uses thereof” (priority 2007, dated 2022).

Test system: cynomolgus monkeys
Assay: 14-day oral toxicity study in cynomolgus monkeys
Type: in vivo, cynomolgus monkey
Procedure: A study was performed to determine any potential toxicity and the toxicokinetic profile of Compound 102 when administered orally (via nasal gavage) to cynomolgus monkeys for at least 14 days. The cynomolgus monkey was chosen for this study as it is a non-rodent species that is commonly used for non-clinical toxicity evaluations. Use of the monkey model maximized the likelihood of identifying toxicological responses that may occur in humans. Ten experimentally naïve cynomolgus monkeys (5 male and 5 female) from about 2.5 to 3 years of age and weighing between about 2.3 to about 2.8 kg at Day −1 of the study were assigned to dose groups as shown in Table 6 below.
All animals were dosed via nasal gavage once daily for 14 consecutive days. The first day of dosing was designated Day 1 for all animals. The animals were evaluated for clinical signs (evaluation of mortality and morbidity, twice daily), cage side observations and food consumption (once daily), body weight (Days 1, 8 and 14), physical examination (Day −5 and post dosing following the 13/24 hour toxicokinetic collection on Day 14), ophthalmic examination (prestudy and owing the Day 13/24 hour toxicokinetic collection on Day 14), and clinical pathology parameters (serum chemistry, hematology and coagulation on Days −3 and 14), urine samples were collected during necropsy (Day 15) for urinalysis. Blood samples were collected for toxicokinetic analysis at 1, 2, 4, 8, 12 and 24 hours post dose on Days 1 and 13.
All ten animals were euthanized one day after the last dose. At termination, a full necropsy was conducted on all animals, and tissues were collected, preserved, processed and examined microscopically by an American College of Veterinary Pathologists (ACVP) certified pathologist.
Vehicle was composed of PEG 400/Tween® 80/PVP-K30 (90/5/5, w/w/w). Appropriate amounts of Compound 102 were added to vehicle to prepare the suspension of test compound administered to the animals
Blood samples for evaluation of serum chemistry, hematology and coagulation parameters were collected from all animals on Days −3 and 14. Urine samples were obtained by bladder puncture during necropsy. The animals were fasted for at east 8 hours prior to blood collections for serum chemistry. Serum chemistry parameters included alanine aminotransferase (ALT), total protein, aspartate aminotransferase (AST), alkaline phosphatase (ALP), gamma-glutamyltransferase (GGT), albumin, globulin, albumin/globulin ratio, lactate dehydrogenase (LD), glucose, total bilirubin, cholesterol, urea nitrogen (BUN), creatinine, triglycerides, sodium, calcium, potassium, phosphorus, chloride and carbon dioxide. Hematology parameters included red blood cell count, hemoglobin concentration, hematocrit, mean corpuscular volume (MCV), mean corpuscular hemoglobin concentration (MCHC), mean corpuscular hemoglobin (MCH), red cell distribution width, reticulocyte count, platelet count, mean platelet volume (MPV) and white blood cell count. Coagulation parameters included prothrombin time (PT) and activated partial thromboplastin time. Urinalysis parameters included color/character, specific gravity, pH, protein, glucose, ketones, bilirubin, occult blood and microscopics.

With N#Cc1ccc(N2CCC[C@@H]2[C@@H](O)C(F)(F)F)cc1C(F)(F)F [Compound 102, R,R-4-(2-(1-Hydroxyl-2,2,2-trifluoroethyl)-pyrrolidinyl)-2-trifluoromethyl-benzonitrile] the “platelet counts lower on Day 14 relative to Day −3” value (5, 50 and 150 mg/kg males and females and 450 mg/kg female) was 14% to 38%, the serum cholesterol concentration (Day 14, all dosed animals) was “decreased” and the “prothrombin time longer than Day −3” value (Day 14, all dosed animals except the 5 mg/kg female) was 1.8 to 3.5 s. The “microscopic findings (histopathology)” value (all dose levels) was “no direct Compound 102-related microscopic findings”, the ophthalmic examinations (all dose levels) was “no Compound 102-related findings” and the urinalysis parameters (all dose levels) was “no Compound 102-related effects”. The body weight (all dosed animals relative to controls) was “dose-independent increase in body weight”, the gross necropsy findings (both sexes at 150 and 450 mg/kg) was “decreased thymus size and brown discoloration of the adrenals” and the NOEL (cynomolgus monkeys, 14 days) was “not achieved”. For the same molecule, the “mortality, clinical signs, food consumption, histologic effects” value (daily administration for 14 days, all dose levels) was “did not result in mortality, adverse clinical signs or changes in food consumption or histologic effects”, the “serum ALT and AST activity” value (female animal dosed with 450 mg/kg, after 14 days) was “elevated” and the thymus histology (males at 150 mg/kg and above, females at 50 mg/kg and above, considered secondary to stress) was “Minimal to mild lymphoid cortical depletion of the thymus”.
